Assay results: patent US11787762B2, “Tetralin and tetrahydroquinoline compounds as inhibitors of HIF-2alpha” (ARCUS BIOSCIENCES, INC., priority 2020, dated 2023)

Experiments:
HIF-2α = target: T1, HIF-2α (Homo sapiens, UniProt Q99814); test: HIF-2α luciferase reporter assay in HIF-Luc-786-O cells; format: cell-based
T1 construct: host or cells: 786-O cells stably transduced with Cignal Lenti HIF Luc Reporter (only the reporter was introduced, not HIF-2α)
Outline: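 Luminescence (ONE-Glo) read after 20 h compound incubation, top concentration 50 uM, 1% DMSO, 20,000 HIF-Luc-786-O cells per well. Activity scaled between DMSO maximum and no-cell baseline; four-parameter dose-response fits yielded IC50.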

[1] = target: T2, Histidine tagged HIF-2α protein containing PAS-B domain (240-350) (Homo sapiens, UniProt Q99814); test: HIF-2α Scintillation Proximity Assay (SPA) binding assay; settings: 50 nM HIF-2α protein, 25 nM 3H-tracer
T2 construct: HIF-2α protein containing PAS-B domain (240-350); made in house
T2 sequence (Q99814 240-350): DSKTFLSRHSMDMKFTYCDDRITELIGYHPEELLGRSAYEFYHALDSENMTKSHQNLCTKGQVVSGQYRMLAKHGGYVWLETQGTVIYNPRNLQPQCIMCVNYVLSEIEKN
Method: HIF-2α Scintillation Proximity Assay (SPA) Binding Assay:
Tritium labeled compound N-(3-chlorophenyl)-4-nitro-2,1,3-benzoxadiazol-5-amine was obtained from American Radiolabeled Chemicals Inc. and copper chelate PVT SPA beads were from PerkinElmer (Cat #RPNQ0095). Histidine tagged HIF-2α protein containing PAS-B domain (240-350) was prepared and purified in house.
Compounds solubilized in DMSO were dispensed into a white 384-well polystyrene non-binding flat clear bottom plate (Greiner Bio-One, Cat #781903) using an HP D300 dispenser. Ten microliters of HIS-tagged HIF-2α protein in buffer (25 mM Tris-HCl, pH 7.4, 150 mM NaCl, 0.15% BSA and 0.001% Tween 20) was added to the compound wells and allowed to incubate for 1 hour at room temperature. Ten microliters of SPA bead mix were added to the wells and incubated for an additional 45 minutes, followed by 10 ul of ^3H-tracer solution. Final assay conditions comprised 50 nM HIF-2α protein, 25 nM radiolabeled tracer and 3 ug beads per well with compounds in 2% DMSO. The plate was read using a MicroBeta Microplate Counter (PerkinElmer) for luminescence detection. The IC50 values of the test compounds were determined from compound dose response curves fitted using a standard four parameter fit equation and are reported in Table 1, Table 2, and Table 3.

T1 sequence (Q99814 whole entry): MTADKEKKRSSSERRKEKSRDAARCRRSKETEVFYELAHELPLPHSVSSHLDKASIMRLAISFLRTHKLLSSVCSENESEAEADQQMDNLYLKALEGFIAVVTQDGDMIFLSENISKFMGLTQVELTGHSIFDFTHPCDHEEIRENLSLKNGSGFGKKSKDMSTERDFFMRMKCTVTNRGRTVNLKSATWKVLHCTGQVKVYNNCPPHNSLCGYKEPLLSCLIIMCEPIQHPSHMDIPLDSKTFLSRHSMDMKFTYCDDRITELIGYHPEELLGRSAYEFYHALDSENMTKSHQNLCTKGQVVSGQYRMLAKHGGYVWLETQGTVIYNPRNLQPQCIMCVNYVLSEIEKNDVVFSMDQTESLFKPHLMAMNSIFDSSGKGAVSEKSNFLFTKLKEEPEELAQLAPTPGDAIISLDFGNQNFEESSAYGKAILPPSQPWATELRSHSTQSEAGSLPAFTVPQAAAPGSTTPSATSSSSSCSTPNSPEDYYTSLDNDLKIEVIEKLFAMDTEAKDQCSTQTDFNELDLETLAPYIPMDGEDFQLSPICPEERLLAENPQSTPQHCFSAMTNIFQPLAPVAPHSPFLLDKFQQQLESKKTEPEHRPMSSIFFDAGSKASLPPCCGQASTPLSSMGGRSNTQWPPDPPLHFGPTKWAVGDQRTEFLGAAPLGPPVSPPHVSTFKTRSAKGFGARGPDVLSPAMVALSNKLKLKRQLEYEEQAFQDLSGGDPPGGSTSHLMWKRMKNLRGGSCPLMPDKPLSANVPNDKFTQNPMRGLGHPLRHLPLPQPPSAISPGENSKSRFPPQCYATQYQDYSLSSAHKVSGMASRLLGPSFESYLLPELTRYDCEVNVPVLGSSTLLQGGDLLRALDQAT

SMILES	IC50 (HIF-2α; Table 1, 20 hours incubation) [µM]	IC50 ([1]; Table 1) [µM]	further results
O=[N+]([O-])c1cc(S(=O)(=O)C(F)(F)F)ccc1N1CCCc2cc(F)ccc21 [Example 62]	> 1	> 1	–
CS(=O)(=O)c1ccc(C2CCCc3cc(F)cc(C#N)c32)c2c1[C@H](O)[C@H](F)C2 (stereo in doubt) [Example 7, (8S)-3-fluoro-8-((1S,2R)-2-fluoro-1-hydroxy-7-(methylsulfonyl)-2,3-dihydro-1H-inden-4-yl)-5,6,7,8-tetrahydronaphthalene-1-carbonitrile]	< 0.1	< 0.1	–
N#Cc1cc(F)cc2c1N(c1ccc(C(F)(F)F)c(F)c1C#N)CCC2C#N (centres unmarked) [Example 124, 1-[2-cyano-3-fluoro-4-(trifluoromethyl)phenyl]-6-fluoro-3,4-dihydro-2H-quinoline-4,8-dicarbonitrile]	–	–	IC50 (HIF-2α; Table 2, 20 hours incubation): < 0.1 µM; IC50 ([1]; Table 2): < 0.1 µM
COc1cc(F)cc2c1N(c1ccc(S(=O)(=O)C(F)(F)F)c(C#N)c1Cl)CCC2 [Example 18, 2-chloro-3-(6-fluoro-8-methoxy-3,4-dihydroquinolin-1(211)-yl)-6-((trifluoromethyl)sulfonyl)benzonitrile]	> 1	> 1	–
O=S(=O)(c1ccc(N2CCCc3cc(F)cc(F)c32)cc1CO)C(F)(F)F [Example 76]	> 1	> 1	–
O=S(=O)(c1ccc(C2CCCc3cc(F)cc(F)c32)c2ccncc12)C(F)(F)F (centres unmarked) [Example 25, 5-(6,8-Difluoro-1,2,3,4-tetrahydronaphth-1-yl)-8-(trifluoromethylsulfonyl)isoquinoline]	> 1	> 1	–
O=S(=O)(c1ccc(N2CCCc3cc(F)cc(F)c32)c2c1[C@H](O)[C@@H](F)C2)C(F)(F)F [Example 54]	> 1	> 1	–
CS(=O)(=O)c1ccc(N2CCCc3cc(F)cc(C#N)c32)c2c1[C@H](O)[C@H](F)C2 [Example 41]	> 1	0.1 to 1	–
CC1CCN(c2ccc(S(=O)(=O)C(F)(F)F)c3c2C[C@@H](F)[C@H]3O)c2c(F)cc(F)cc21 (some centres unmarked) [Example 30]	0.1 to 1	0.1 to 1	–
Cc1c(-c2ccc([C@H]3CC[C@H](F)c4cc(F)cc(C#N)c43)c3c2[C@H](O)C(F)(F)C3)cnn1C [Example 166, (5S,8R)-8-[(1S)-7-(1,5-dimethyl-1H-pyrazol-4-yl)-2,2-difluoro-1-hydroxy-2,3-dihydro-1H-inden-4-yl]-3,5-difluoro-5,6,7,8-tetrahydronaphthalene-1-carbonitrile]	–	–	IC50 (HIF-2α; Table 3, 20 hours incubation): < 0.1 µM; IC50 ([1]; Table 3): < 0.1 µM
Cc1c([C@H]2CC[C@H](F)c3cc(F)cc(C#N)c32)cnc(C(C)(F)F)c1F [Example 139, (5S,8S)-8-[6-(1,1-difluoroethyl)-5-fluoro-4-methylpyridin-3-yl]-3,5-difluoro-5,6,7,8-tetrahydronaphthalene-1-carbonitrile]	–	–	IC50 (HIF-2α; Table 2, 20 hours incubation): < 0.1 µM; IC50 ([1]; Table 2): < 0.1 µM
N#Cc1c(S(N)(=O)=O)ccc(N2CCCc3cc(F)cc(F)c32)c1C(F)F [Example 72]	> 1	> 1	–
CS(=O)(=O)c1ccc([C@H]2CCCc3cc(F)cc(C#N)c32)c2c1[C@H](O)[C@H](F)[C@@H]2F [Example 140, (8R)-8-[(1S,2S,3R)-2,3-difluoro-1-hydroxy-7-methylsulfonyl-2,3-dihydro-1H-inden-4-yl]-3-fluoro-5,6,7,8-tetrahydronaphthalene-1-carbonitrile]	–	–	IC50 (HIF-2α; Table 2, 20 hours incubation): < 0.1 µM; IC50 ([1]; Table 2): < 0.1 µM
O=[N+]([O-])c1cc(C(O)(C(F)(F)F)C(F)(F)F)ccc1N1CCCc2cc(F)cc(F)c21 [Example 70]	> 1	> 1	–
N#Cc1cc(F)cc2c1N(c1ccc(C(F)(F)F)c(Cl)c1C#N)CCC2 [Example 29]	0.1 to 1	0.1 to 1	–
CC[C@@H]1CCN(c2ccc(S(=O)(=O)C(F)(F)F)c3c2C[C@@H](F)[C@H]3O)c2c(F)cc(F)cc21 [Example 45]	> 1	0.1 to 1	–
Cn1ncc(C#N)c1-c1ccc([C@H]2CC[C@H](F)c3cc(F)cc(C#N)c32)c2c1[C@H](O)C(F)(F)C2 [Example 145, 5-[(3S)-7-[(1R,4S)-8-cyano-4,6-difluoro-1,2,3,4-tetrahydronaphthalen-1-yl]-2,2-difluoro-3-hydroxy-1,3-dihydroinden-4-yl]-1-methylpyrazole-4-carbonitrile]	–	–	IC50 (HIF-2α; Table 3, 20 hours incubation): < 0.1 µM; IC50 ([1]; Table 3): < 0.1 µM
CS(=O)(=O)c1ccc(N2CCOc3cc(F)cc(C#N)c32)c2c1[C@H](O)[C@H](F)C2 [Example 20, 7-fluoro-4-((1S,2R)-2-fluoro-1-hydroxy-7-(methylsulfonyl)-2,3-dihydro-1H-inden-4-yl)-3,4-dihydro-2H-benzo[b] [1,4]oxazine-5-carbonitrile]	> 1	> 1	–
Fc1cc(F)c2c(c1)CCCN2c1ccc(C(F)(F)F)nc1 [Example 35]	0.1 to 1	> 1	–
O=Cc1c(S(=O)(=O)C(F)(F)F)ccc(N2CCCc3cc(F)cc(F)c32)c1Cl [Example 69]	> 1	0.1 to 1	–
N#Cc1cc(F)cc2c1N(c1ccc(C(F)(F)F)c(Cl)c1C#N)CCC2F (centres unmarked) [Example 123, 1-[3-Chloro-2-cyano-4-(trifluoromethyl)phenyl]-4,6-difluoro-3,4-dihydro-2H-quinoline-8-carbonitrile]	–	–	IC50 (HIF-2α; Table 2, 20 hours incubation): < 0.1 µM; IC50 ([1]; Table 2): < 0.1 µM
N#Cc1ccccc1-c1ccc([C@H]2CC[C@H](F)c3cc(F)cc(C#N)c32)c2c1[C@H](O)C(F)(F)C2 [Example 162, (5S,8R)-8-[(1S)-7-(2-cyanophenyl)-2,2-difluoro-1-hydroxy-1,3-dihydroinden-4-yl]-3,5-difluoro-5,6,7,8-tetrahydronaphthalene-1-carbonitrile]	–	–	IC50 (HIF-2α; Table 3, 20 hours incubation): < 0.1 µM; IC50 ([1]; Table 3): < 0.1 µM
Cn1ncnc1-c1ccc([C@H]2CC[C@H](F)c3cc(F)cc(C#N)c32)c2c1[C@H](O)C(F)(F)C2 [Example 174, (5S,8R)-8-[(1S)-2,2-difluoro-1-hydroxy-7-(2-methyl-1,2,4-triazol-3-yl)-1,3-dihydroinden-4-yl]-3,5-difluoro-5,6,7,8-tetrahydronaphthalene-1-carbonitrile]	–	–	IC50 (HIF-2α; Table 3, 20 hours incubation): < 0.1 µM; IC50 ([1]; Table 3): < 0.1 µM
CC(F)(F)c1ccc(N2CCC(F)(F)c3cc(F)cc(C#N)c32)c(C#N)c1F [Example 133, 1-[2-cyano-4-(1,1-difluoroethyl)-3-fluorophenyl]-4,4,6-trifluoro-1,2,3,4-tetrahydro-8-quinolinecarbonitrile]	–	–	IC50 (HIF-2α; Table 2, 20 hours incubation): < 0.1 µM; IC50 ([1]; Table 2): < 0.1 µM
N#Cc1cc(F)cc2c1[C@@H](c1ccc(S(=O)(=O)C(F)(F)F)c3c1CC[C@H]3O)CCC2 [Example 90]	< 0.1	< 0.1	–
Cc1c(N2CCCc3cc(F)cc(C#N)c32)ccc(C(F)(F)F)c1F [Example 37]	0.1 to 1	0.1 to 1	–
N#Cc1cc(F)cc2c1N(c1cnc(C(F)(F)F)c(F)c1)CCC2 [Example 32]	0.1 to 1	0.1 to 1	–
CC(O)(c1ccc(N2CCCc3cc(F)cc(C#N)c32)c([N+](=O)[O-])c1)C(F)(F)F (centres unmarked) [Example 59]	> 1	> 1	–
CS(=O)(=O)c1ccc(N2CCCc3cc(F)cc(F)c32)c(C(F)F)c1C#N [Example 53]	> 1	> 1	–

Now from value to compound, other results behind:

IC50 (HIF-2α; Table 1, 20 hours incubation) [µM]	IC50 ([1]; Table 1) [µM]	SMILES	further results
0.1 to 1	< 0.1	CS(=O)(=O)c1ccc([C@H]2CCCc3cc(F)cc(F)c32)c2c1[C@H](O)C(F)(F)C2 [Example 93]	–
> 1	> 1	O=S(=O)(c1ccc([C@]2(O)CCCc3cc(F)cc(F)c32)c2c1[C@H](O)[C@H](F)C2)C(F)(F)F [Example 109]	–
